In article PMC4000213 (PLoS ONE, 2014):
Values joined by “and” are separate entries in the source; they are usually repeats but may differ in a detail not shown here. Equal entries are not always repeated. “Also recorded” adds a separate entry of the source. Where two headings read alike, the source gives them in different places.

Tests used:
[1] = system: BoNT/A / LcA; conditions: cited from earlier work
[2] = target: T1, LcA (BoNT/A light chain) (Clostridium botulinum, UniProt P0DPI0); format: biochemical; conditions: pH 7.4
[3] = target: T1, LcA (BoNT/A light chain); format: biochemical
[4] = target: T1, LcA (BoNT/A light chain); format: biochemical; remark: listed apart in the source
[5] = target: T1, LcA (BoNT/A light chain); conditions: cited from earlier work
[6] = target: T1, LcA (BoNT/A light chain); conditions: cited from earlier work; remark: listed apart in the source
[7] = target: T1, LcA (BoNT/A light chain)
[8] = target: T1, LcA (BoNT/A light chain); remark: listed apart in the source
[9] = target: T1, LcA (BoNT/A light chain); remark: listed apart in the source

T1 sequence (P0DPI0 1-448 limits assumed): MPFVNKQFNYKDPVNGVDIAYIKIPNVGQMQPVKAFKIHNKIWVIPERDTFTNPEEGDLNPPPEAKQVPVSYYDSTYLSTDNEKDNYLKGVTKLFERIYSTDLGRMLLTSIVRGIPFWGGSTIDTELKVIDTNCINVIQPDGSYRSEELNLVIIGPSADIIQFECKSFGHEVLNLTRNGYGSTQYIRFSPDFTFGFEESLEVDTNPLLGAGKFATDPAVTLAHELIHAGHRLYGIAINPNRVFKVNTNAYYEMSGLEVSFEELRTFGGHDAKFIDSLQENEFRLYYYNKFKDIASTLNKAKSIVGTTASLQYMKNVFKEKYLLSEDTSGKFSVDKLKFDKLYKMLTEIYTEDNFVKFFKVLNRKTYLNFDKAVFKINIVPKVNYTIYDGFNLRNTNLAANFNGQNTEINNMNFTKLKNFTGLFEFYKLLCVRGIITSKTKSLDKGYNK

## Cl.NC(CO)(CO)CO [tris.HCl]
[1]
  effect on BoNT / LcA activity: inhibitory
  effect on BoNT/A activity: inhibitory

## [Zn] [zinc]
[1]
  effect on the LcA reaction depending on concentration: both stimulating and inhibitory

## [Cl-].[Na+] [NaCl, Sodium chloride]
[1]
  effect on BoNT activities: inhibits BoNT activities
  effect on BoNT/A activity: inhibitory
[2]
  effect of NaCl on LcA activity, 66-mer substrate: stimulating effect; also recorded: The same was also observed when the 66-mer peptide was used as a substrate
[3]
  effect of higher NaCl concentrations on LcA activity, full length SNAP25 substrate: decrease in LcA activity
[3]; pH 7.4
  effect of NaCl on LcA activity, full length SNAP25 substrate: stimulating effect; also recorded: more than sevenfold
[4]; pH 7.4
  effect of NaCl on LcA activity, 17-mer substrate: inhibitory effect

## (FITC)-ATDRIDQANQRATK(DABCYL)nL-amide
[5]
  Km: 19 µM

## O=C(O)CN(CCN(CC(=O)O)CC(=O)O)CC(=O)O [EDTA, ethylenediaminetetraacetate]
[1]
  effect on BoNT / LcA activity: inhibitor of LcA activity
  effect on BoNT activities: inhibits BoNT activities
  effect on BoNT/A activity: inhibitory

## O[C@@H](CS)[C@@H](O)CS (racemic) [DTT, dithiothreitol]
[6]
  effect on kinetic constants or specific activity of LcA with the 17-mer substrate: no effect
[1]
  effect of DTT on solubilized LcA activity: inhibited
  effect on the LcA reaction depending on concentration: both stimulating and inhibitory
[3]
  concentration for optimal LcA activity: 4 mM
[3]; pH 7.4
  effect of DTT on LcA activity, SNAP25 substrate: slight stimulation of LcA activity
[4]
  behavior of the new LcA preparation on adding BSA, ZnCl2 and DTT: essentially same behavior
  effect of adding DTT and ZnCl2 to the 17-mer substrate reactions: results identical to those without them

## SNRTRIDEAN[dnpK]RA[daciaC]RML
[5]
  Km: 10 µM
  kcat: 7 s⁻¹

## zinc chloride [ZnCl2]
[6]
  effect on kinetic constants or specific activity of LcA with the 17-mer substrate: no effect
[3]
  concentration for optimal LcA activity: 0.1 mM
[3]; pH 7.4
  effect of ZnCl2 on LcA activity, SNAP25 substrate: slight stimulation of the activity; also recorded: activity remained above the control 100%
[4]
  behavior of the new LcA preparation on adding BSA, ZnCl2 and DTT: essentially same behavior
  effect of adding DTT and ZnCl2 to the 17-mer substrate reactions: results identical to those without them

## SNKTRIDEANQ-RATKML [17-mer]
[7]
  substrate conversion: 60–65%
  substrate converted into products: 40%
[8]
  Km: 1500 µM
  Vmax: 33.6 mM/min/mg
  kcat: 28 s⁻¹
[8]; pH 7.4
  Km: 1510 µM
  kcat: 28 s⁻¹ and 28 ± 3.5 s⁻¹
  kcat/Km: 0.019 µM/s
[5]
  Km: 1000 µM
[9]
  quality as LcA substrate (Km, kcat, kcat/Km): poorest of all the three substrates
